From patent US6034066A, “Cysteine protease inhibitors for use in treatment of IGE mediated allergic diseases” (Peptide Therapeutics Limited, priority 1995, dated 2000)

Molecular target: T1, Der p I (Dermatophagoides pteronyssinus, UniProt P08176)
T1 construct: tissue SmithKline-Beecham (crude mite extract); host or cells: house dust mite extract, purified on immobilised anti-Der p I antibody 4C1
T1 sequence (P08176 99-320): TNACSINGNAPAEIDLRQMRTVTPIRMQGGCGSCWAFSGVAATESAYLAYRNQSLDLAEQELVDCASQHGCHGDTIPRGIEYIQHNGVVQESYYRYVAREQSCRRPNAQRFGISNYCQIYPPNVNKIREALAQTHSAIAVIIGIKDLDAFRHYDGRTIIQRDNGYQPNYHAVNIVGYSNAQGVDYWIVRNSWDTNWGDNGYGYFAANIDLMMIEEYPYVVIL
Experiment: Inhibition (inactivation) kinetics of Der p I, fluorogenic substrate assay
Assay type: biochemical
Conditions: second order inactivation rate constant, 50 mM potassium phosphate pH 8.25, 1 mM EDTA, 1 mM DTT, 25° C., purified Der p I; for kinact/KI: read-out: kobs /[I]
Method: All Der-p I enzyme assays were routinely carried out in 50 mM potassium phosphate; pH 8.25 containing 1 mM ethylenediaminetetraaceticacid (EDTA) and 1 mM dithiothreitol (DTT). Product formation was monitored with respect to time by measuring the increase in fluorescence emission at 420 nm and exciting at 320 nm. All assays were carried out at 25° C. Stock solutions of the various substrates and/or inhibitors were made up in 100% dimethylsulphoxide (DMSO).
The reaction of enzyme and inhibitor is comprised of two steps. The first is binding of enzyme and inhibitor to produce the enzyme inhibitor complex (E.I). This step is assumed to be rapid and reversible, relative to the other steps, and no chemical reaction occurs. In this case k1 is the second order rate constant for the formation of the E.I complex and k-1 is the first order rate constant for the breakdown of the E.I. The second step in the process, occurring at a rate k2, is the formation of the enzyme-inhibitor covalent complex (EI) resulting in irreversible inactivation of the enzyme.
The practice of inactivation kinetics of enzymes have been described by two standard accepted methods (Schemes 1 and 2). The first (Scheme 1) is the dilution method described by Kitz, C. G. and Wilson, I. B., (1962), J. Biol. Chem., 237, 3245-3249. In this case enzyme and inhibitor are pre-incubated for a set period of time prior to quenching of this reaction by the addition of an excess of substrate. The second method (Scheme 2), is monitoring enzyme inactivation in the presence of substrate and irreversible inhibitors. This method has been described previously (Tian, W. -X. & Tsou, C. -L, (1982), Biochemistry, 21, 1028-1032; Morrison, J. F. & Walsh, C. T., (1988), Adv. Enzymol. Relat. Areas Mol. Biol., 61, 201-301) and the equations describing the kinetics are shown below (Eq. 1, 2 and 3). In both cases the inhibitor concentration employed is at least 10 times greater than the enzyme concentration in order to maintain pseudo-first order conditions.
kapp =k2 [I]/1+[S]/KM [I]+K1) Eq. 1
[Product]=vs t+(v0 -v5)[1-exp(-kapp t)]/kapp +dEq.
second order rate constant=(kapp /[I])(1+[S]/KM) Eq. 3
The apparent inactivation rate constant (kapp) was calculated using Eq. 2; where vo is the initial velocity of the reaction, vs is asymptotic steady-state velocity of the reaction, d is the intercept at time zero. The second order rate was calculated using Eq. 3.
Assays were routinely carried out in 50 mM potassium phosphate; pH 8.25 containing 1 mM ethylenediaminetetraaceticacid (EDTA) and 1 mM dithiothreitol (DTT). The fluorogenic substrate was 2-aminobenzoylvalylalanylnorleucylseryl-(3-nitro)tyrosinyl aspartylamide. Product formation was monitored with respect to time by measuring the increase in fluorescence emission at 420 nm and exciting at 320 nm. Assays were carried out at 25° C. Stock solutions of the various inhibitors were made up in 100% dimethylsulphoxide.
Inactivation kinetics for various inhibitors were carried out using the techniques already described. In the dilution method, generally 100 nM Der p I was mixed and incubated with 0.5-10 uM of the inhibitor and aliquots were taken out at given time points (sampling time) and the residual enzyme activity determined by a ten-fold dilution into assay buffer containing saturating amounts of substrate. The residual activity was related to the sampling time and the curve fitted by computational non-linear least square regression analysis. In cases where the second order rate constants were greater than 10^5 M^-1 s^-1, second order conditions were employed (i.e. equimolar amounts of enzyme and inhibitor). Generally stoichiometric amounts of enzyme and inhibitor were incubated for given time intervals (sampling time) and the reaction stopped by a ten-fold dilution of this mixture by saturating amounts of substrate in assay buffer. […]

Compound | kobs /[I] | kinact/KI
CCOC(=O)/C=C/[C@H](CC(C)C)NC(=O)[C@H](C)NC(=O)[C@@H](NC(=O)Nc1ccccc1)C(C)C [Compound 29] | 4.6 × 10^3 M^- s^-1 | 
CCCC[C@H](NC(=O)[C@H](C)NC(=O)[C@@H](NC(=O)c1ccccc1)C(C)C)C(=O)NOC(=O)c1ccccc1 [Compound 15, N-(Benzoyl amino-L-valyl-L-alanyl-L-norleucyl)-O-benzoyl hydroxamate] | 1.5 × 10^5 M^- s^-1 | 
CCOC(=O)/C=C/[C@H](CC(C)C)NC(=O)[C@H](C)NC(=O)[C@@H](NC(=O)C1c2ccccc2Oc2ccccc21)C(C)C [Compound 34] | 1.1 × 10^4 M^- s^-1 | 
CCOC(=O)/C=C/[C@H](CC(C)C)NC(=O)[C@H](C)NC(=O)[C@@H](NC(=O)c1ccc2c(c1)OCO2)C(C)C [Compound 28] | 6.8 × 10^3 M^- s^-1 | 
CCCC[C@H](NC(=O)[C@H](C)NC(=O)[C@@H](NC(=O)c1ccccc1)C(C)C)C(=O)COC(=O)[C@@H](COC(C)(C)C)NC(=O)OCc1ccccc1 [Compound 10, N-Benzoyl-L-valyl-L-alanyl-L-norleucine N-(-benzyloxycarbonyl)-D-serinyl-(O-tert-butyl)oxymethyl ketone] | 1.9 × 10^5 M^- s^-1 | 
N-Benzoyl-L-valyl-L-alanyl-L-norleucine 1,1-dimethylpropyloxymethyl ketone [Compound 9] | 2.3 × 10^4 M^- s^-1 | 
CC(C)C[C@@H](/C=C/S(=O)(=O)c1ccccc1)NC(=O)[C@H](C)NC(=O)[C@@H](NNC(=O)OC(C)(C)C)C(C)C [Compound 36, (S)-(E)-3-((tert-butoxycarbonylamino-L-valyl)-L-alanyl)amino-1-phenylsulfonyl-5-methyl-1-hexene] |  | 6400 M⁻¹ s⁻¹
CCCC[C@H](NC(=O)[C@H](C)NC(=O)[C@@H](NC(=O)c1ccccc1)C(C)C)C(=O)NOC(=O)c1c(C)cccc1C [Compound 16, N-(N-benzoyl-L-valyl-L-alanyl-L-norleucyl)-O-2,6-dimethyl-benzoyl hydroxamate] | 1.6 × 10^4 M^- s^-1 | 
CCOC(=O)/C=C/[C@H](CC(C)C)NC(=O)[C@H](C)NC(=O)[C@@H](NC(=O)OC(C)(C)C)C(C)C [Compound 23] | 1.7 × 10^3 M^- s^-1 | 
CCCC[C@H](NC(=O)[C@H](C)NC(=O)[C@@H](NC(=O)c1ccccc1)C(C)C)C(=O)COC(=O)c1c(C(F)(F)F)cccc1C(F)(F)F [Compound 3, N-Benzoyl-L-valyl-L-alanyl-L-norleucine 2,6-bis (trifluoromethyl)benzoyloxymethyl ketone] | > 10^7 M^- s^-1 | 
CCCC[C@H](NC(=O)[C@H](C)NC(=O)[C@@H](NC(=O)c1ccccc1)C(C)C)C(=O)COC(=O)[C@@H](CO)NC(=O)OCc1ccccc1 [Compound 11, N-Benzoyl-L-valyl-L-alanyl-L-norleucine N(-benzyloxycarbonyl)-D-serinyloxy methyl ketone] | 1.2 × 10^6 M^- s^-1 | 
CC(C)C[C@@H](/C=C/S(C)(=O)=O)NC(=O)[C@H](C)NC(=O)[C@@H](NNC(=O)OC(C)(C)C)C(C)C [Compound 38, (S)-(E)-3-((tert-butoxycarbonylamino-L-valyl)-L-alanyl)amino-1-methylsulfonyl-5-methyl-1-hexene] |  | 1100 M⁻¹ s⁻¹
N-Benzoyl-L-valyl-L-alanyl-L-norleucine 2-furanoxy methyl ketone [Compound 12] | 1.9 × 10^5 M^- s^-1 | 
CCCC[C@H](NC(=O)[C@H](C)NC(=O)[C@@H](NC(=O)c1ccccc1)C(C)C)C(=O)COC(=O)c1ccccc1 [Compound 7, N-Benzoyl-L-valyl-L-alanyl-L-norleucine benzoyloxymethyl ketone] | 3.7 × 10^5 M^- s^-1 | 
CCOS(=O)(=O)/C=C/[C@H](CC(C)C)NC(=O)[C@H](C)NC(=O)[C@@H](NC(=O)OC(C)(C)C)C(C)C [Compound 40, Ethyl(S)-(E)-3-((tert-butoxycarbonylamino-L-valyl)-L-alanyl)amino-5-methylhexenylsulfonate] | 6.9 × 10^4 M^- s^-1 | 
CCCC[C@H](NC(=O)[C@H](C)NC(=O)[C@@H](NC(=O)c1ccccc1)C(C)C)C(=O)COC(=O)c1c(C)cccc1C [Compound 4, N-Benzoyl-L-valyl-L-alanyl-L-norleucine 2,6-dimethyl benzoyloxy methyl ketone] | 1.6 × 10^7 M^- s^-1 | 
CCOC(=O)/C=C/[C@H](CC(C)C)NC(=O)[C@H](C)NC(=O)[C@@H](NC(=O)c1ccccc1)C(C)C [Compound 26] | 4.1 × 10^3 M^- s^-1 | 
CCCC[C@H](NC(=O)[C@H](C)NC(=O)[C@@H](NC(=O)c1ccccc1)C(C)C)C(=O)COC(=O)c1c(F)c(F)c(F)c(F)c1F [Compound 8, N-Benzoyl-L-valyl-L-alanyl-L-norleucine 2,3,4,5,6-pentafluoro benzoyloxy methyl ketone] | > 10^7 M^- s^-1 | 
CCOC(=O)/C=C/[C@H](CC(C)C)NC(=O)[C@H](C)NC(=O)[C@@H](NC(=O)c1ccccc1C(F)(F)F)C(C)C [Compound 27] | 6.3 × 10^3 M^- s^-1 | 
CCOC(=O)/C=C/[C@H](CC(C)C)NC(=O)[C@H](C)NC(=O)[C@@H](NC(=O)N(c1ccccc1)c1ccccc1)C(C)C [Compound 30] | 7.5 × 10^3 M^- s^-1 | 
CCCC[C@H](NC(=O)[C@H](C)NC(=O)[C@@H](NC(=O)c1ccccc1)C(C)C)C(=O)COC(=O)c1c(Cl)cccc1Cl [Compound 13, N-Benzoyl-L-valyl-L-alanyl-L-norleucine 2,6-dichlorophenylacyloxy methyl ketone] | 6.6 × 10^5 M^- s^-1 | 
CCCC[C@H](NC(=O)[C@H](C)NC(=O)[C@@H](NC(=O)c1ccccc1)C(C)C)C(=O)COC(=O)c1c(Cl)cccc1Cl [Compound 6, N-Benzoyl-L-valyl-L-alanyl-L-norleucine 2,6-dichlorobenzoyloxymethyl ketone] | 6.8 × 10^7 M^- s^-1 | 
CC(C)C[C@@H](/C=C/C(=O)OCC(F)(F)F)NC(=O)[C@H](C)NC(=O)[C@@H](NC(=O)OC(C)(C)C)C(C)C [Compound 25] | 3.1 × 10^3 M^- s^-1 | 
